In one assay the target is T1, RAD52-ssDNA interaction (Homo sapiens, UniProt P43351).
T1 construct: made in house
T1 sequence (P43351 1-418): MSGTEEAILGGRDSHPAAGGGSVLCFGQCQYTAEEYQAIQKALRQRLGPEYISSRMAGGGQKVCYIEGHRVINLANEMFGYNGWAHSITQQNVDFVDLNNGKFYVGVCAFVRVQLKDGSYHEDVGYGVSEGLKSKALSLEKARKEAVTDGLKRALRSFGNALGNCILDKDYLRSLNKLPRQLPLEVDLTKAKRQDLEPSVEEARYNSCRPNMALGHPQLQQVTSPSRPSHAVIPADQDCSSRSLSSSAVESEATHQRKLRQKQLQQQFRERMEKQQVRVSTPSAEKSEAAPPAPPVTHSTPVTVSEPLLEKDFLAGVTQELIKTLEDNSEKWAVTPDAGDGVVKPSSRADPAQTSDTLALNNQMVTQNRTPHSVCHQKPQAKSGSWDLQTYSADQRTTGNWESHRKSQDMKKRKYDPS
Nature of the assay: FRET-based ssDNA binding and wrapping assay (RAD52-Cy3-dT30-Cy5 complex). The conditions noted are these: for IC50 range for inhibition of ssDNA binding, in words / FRET value at saturation: 1 nM Cy3-dT30-Cy5, 8 nM RAD52; for FRET value at saturation: ssDNA. As for the experimental part: We titrated increasing amounts of each compound into a cuvette containing preformed stoichiometric RAD52-Cy3-dT30-Cy5 complexes (1 nM Cy3-dT30-Cy5 and 8 nM RAD52). […] At each concentration of the compound, the FRET signal was adjusted for the change in Cy3 and Cy5 fluorescence in the presence of the compound, but in the absence of protein.
FRET-based ssDNA binding, dsDNA binding, and annealing assays were carried out as previously described ([Grimme et al., 2010]; [Grimme and Spies, 2011]) using Cary Eclipse spectrofluorimeter (Varian) at 25°C in buffer containing 30 mM Tris-Acetate pH7.5, 1 mM DTT, and 0.1 mg/mL BSA. Cy3 dye was excited at 530 nm and its emission was monitored at 565 nm. Emission of Cy5 acceptor fluorophore excited through the energy transfer from Cy3 donor is monitored at 660 nm simultaneously with emission of Cy3 dye. Both the excitation and the emission slit widths were set to 10 nm.
All experiments were performed in triplicates, and the data are shown as averages and standard deviations for three independent measurements. To remove possible experimental artifacts associated with chromogenic or fluorogenic compounds, as well as with the compounds that may quench or enhance Cy3 or Cy5 fluorescence, we also performed control titrations whereby we titrated each compound into 1 nM Cy3-dT30-Cy5 in the absence of RAD52. For each compound concentration we subtracted the difference in the FRET signal in the presence and absence of the compound from the respective FRET signal in the presence of RAD52. The FRET signal corrected for the compound fluorescence was calculated using the equation: FRETapp=4.2∗ICy5/4.2∗ICy5+ 1.7∗ICy3
as previously described ([Grimme et al., 2010]; [Grimme and Spies, 2011]) and plotted as a function of compound concentration and fitted to the following inhibition model” FRET([small molecule])=FRET0−FRETmin/1+10^(LogIC50−Log([small molecule])∗HillSlope),
where FRET0 is the initial FRET value of the RAD52-ssDNA complex in the absence of the compound and FRETmin is the FRET value at complete inhibition. FRET values were calculated as an average of three or more independent annealing reactions plotted against the concentration of the compound. Inhibition of the RAD52-dsDNA interaction was assayed in a similar experiments, except the stoichiometric complexes containing 1 nM molecules of Cy3-Oligo28-Cy5 duplex DNA and 10 nM RAD52.

The target of assay [1] is T2, RAD52-mediated ssDNA annealing (Homo sapiens, UniProt P43351).
T2 construct: made in house
T2 sequence (P43351 1-418): T1 sequence (P43351 1-418)
Nature of the assay: FRET-based RAD52-mediated ssDNA annealing assay. It is filed as biochemical. An excerpt:
To determine how the selected compounds affect the ssDNA annealing function of RAD52 we performed FRET-based annealing assays ([Grimme et al., 2010]; [Grimme and Spies, 2011]). These assays utilize two complementary single stranded 28-nucleotide-long substrates, which contain either Cy3 (T-28) or Cy5 (P-28) incorporated into the middle of the respective DNA strand. When the substrates are annealed by RAD52, the Cy3 and Cy5 dyes are separated by 3 base pairs and yield a high FRET signal (Figure 2—figure supplement 2). […] The annealing reactions were initiated by mixing two half reactions and observing the change in FRET over time in the presence of varying concentrations of small molecules. An increasing FRET value over time indicates the formation of the dsDNA duplex which brings the two dyes in close proximity (Figure 2—figure supplement 2). Fitting the annealing data to a double exponential allowed us to calculate and compare the final extent of annealing at varying concentrations of each compound compared to RAD52 alone. We plotted the final extent of annealing vs the concentration of the compound and calculated an IC50 of annealing inhibition. […] At the stoichiometric RAD52: dsDNA ratio, (1 nM dsDNA: 10 nM RAD52) the dsDNA is bent upon RAD52 binding, which allows us to distinguish the RAD52-bound and free dsDNA (Figure 2—figure supplement 1).
Annealing of complementary oligonucleotides by RAD52 was monitored under identical conditions as the binding assays described above. For each assay, the reaction master mixture containing 8 nM RAD52 protein in the presence and absence of the compounds at varying concentrations was prepared at room temperature and divided into two half reactions. Following baseline buffer and protein measurements, 0.5 nM of T-28 ssDNA substrate was added to the reaction cuvette and the signal was allowed to stabilize. The annealing reaction was initiated upon addition of the second half-reaction pre-incubated with 0.5 nM P-28 ssDNA substrate. The fluorescence of Cy3 and Cy5 were measured simultaneously over the reaction time course (500 s). FRETapp values were calculated as an average of three or more independent annealing reactions plotted against time (s). The average FRET values were fitted to a double exponential to calculate the final extent of annealing using Graphpad Prism4 software. The calculated annealing extent was plotted as a function of compound concentration and fitted to the same model as we used to determine IC50 values for the inhibition of DNA annealing.

[2] abbreviates: 1 nM Cy3-dT30-Cy5, 8 nM RAD52, 25°C, read-out: IC50 (DNA binding), ssDNA.
Where [3] appears, read: 8 nM RAD52, 0.5 nM T-28 and 0.5 nM P-28, read-out: IC50 (Annealing extent), ssDNA.
The mark [4] stands for this setting: read-out: IC50 (Annealing extent), ssDNA, 8 nM RAD52, 0.5 nM T-28 and 0.5 nM P-28.

From publication PMC4982760, “Small-molecule inhibitors identify the RAD52-ssDNA interaction as critical for recovery from replication stress and for survival of BRCA2 deficient cells” (eLife, 2016) come the findings set out here.

Counter-ions that a name gives are not always drawn. Like-named read-outs stand apart in the source and are kept apart here.

For orientation: IC50 means the concentration at which inhibition is half-maximal.

Take `C=C1c2cccc(O)c2C(=O)C2=C(O)[C@]3(O)C(=O)C(C(N)=O)=C(O)[C@@H](N(C)C)[C@@H]3[C@@H](O)[C@H]12` [Compound 3, Methacycline Hydrochloride]: the “IC50 range for inhibition of ssDNA binding, in words” value (from here on “IC50 range for inhibition”) on RAD52-ssDNA interaction is given as “micro-molar range”. The figures for the IC50 (on RAD52-ssDNA interaction (setting [2]); in assay [1] (setting [3])) were 2 ± 0.17 µM and 3.8 ± 0.2 µM, respectively. The “FRET value at saturation” value on RAD52-ssDNA interaction amounted to 0.47 ± 0.01.
As to `CN(C)[C@@H]1C(O)=C(C(=O)NCN2CCCC2)C(=O)[C@@]2(O)C(O)=C3C(=O)c4c(O)cccc4[C@@](C)(O)[C@H]3C[C@@H]12` [Compound 4, Rolitetracycline], at RAD52-ssDNA interaction, the IC50 is 29 ± 8.2 µM; the “IC50 range for inhibition” value is reported as “mid micro-molar range”; the “FRET value at saturation” value is 0.56 ± 0.04. Further, the IC50 in assay [1] (setting [4]) is greater than 100 µM.
`O=C(O[C@@H]1Cc2c(O)cc(O)cc2O[C@@H]1c1ccc(O)c(O)c1)c1cc(O)c(O)c(O)c1` [Compound 5, (−)−Epicatechin gallate]: at RAD52-ssDNA interaction, the “IC50 range for inhibition” value is on record as “nano-molar range” and the “FRET value at saturation” value is 0.41 ± 0.004. The IC50 on RAD52-ssDNA interaction (setting [2]) is 0.255 ± 0.016 µM. Also, in assay [1] (setting [3]), the IC50 came to 20 ± 0.7 µM.
The like results for `Oc1cc(O)c2c(c1)O[C@H](c1ccc(O)c(O)c1)[C@H](O)C2` [Compound 7, (−)−Epicatechin] were, in that order, “micro-molar range”, 0.51 ± 0.01, 1.45 ± 0.11 µM and greater than 100 µM.
In the case of `NCCc1cc(O)c(O)cc1O` [Compound 14, Oxidopamine], at RAD52-ssDNA interaction, the IC50 was 0.779 ± 0.051 µM; the “IC50 range for inhibition” value is reported as “nano-molar range”; the “FRET value at saturation” value is recorded as 0.50 ± 0.01. Besides, in assay [1] (setting [4]), the IC50 was greater than 100 µM.
Consider `O=C1c2ccc(O)c(O)c2C(=O)c2c(O)ccc(O)c21` [Compound 15, Quinalizarin], for which, on RAD52-ssDNA interaction, the “IC50 range for inhibition” value is on record as “nano-molar range” and the “FRET value at saturation” value was determined as 0.51 ± 0.01. For the same molecule, the IC50 on RAD52-ssDNA interaction (setting [2]) is 0.563 ± 0.04 µM. The 50% inhibitory concentration (IC50) in assay [1] (setting [3]) came out at 5.6 ± 0.6 µM.
On to `COc1cc(N)c(Cl)cc1C(=O)NC1CCN(CCCOc2ccc(F)cc2)CC1OC` (centres unmarked) [Compound 16, Cisapride Monohydrate], for which the “FRET value at saturation” value at RAD52-ssDNA interaction is 0.50 ± 0.01.
Consider `CC1(C)C(=O)C=C[C@@]2(C)C1=C(O)C(=O)[C@]1(C)[C@@H]2CC[C@@]2(C)[C@H](c3ccoc3)C[C@H]3O[C@]321` [Compound 17, Cedrelone], for which the “IC50 range for inhibition” value at RAD52-ssDNA interaction is listed as “high micro-molar range”. Moreover, the IC50 is greater than 300 µM at RAD52-ssDNA interaction (setting [2]) and greater than 100 µM in assay [1] (setting [3]).
`C[C@H]1[C@H](C)CC[C@]2(C(=O)O)CC[C@]3(C)C(=CC[C@@H]4[C@@]5(C)C[C@@H](O)[C@H](O)[C@@](C)(CO)[C@@H]5CC[C@]43C)[C@H]12` [Compound 18, Asiatic Acid]: on RAD52-ssDNA interaction, the “IC50 range for inhibition” value is “high micro-molar range”. Moreover, the IC50 on RAD52-ssDNA interaction (setting [2]) was greater than 800 µM; in assay [1] (setting [3]), greater than 100 µM.
`O=c1c(O)c(-c2ccc(O)c(O)c2)oc2c(O)c(O)cc(O)c12` [Compound 19, Gossypetin]: at RAD52-ssDNA interaction, the IC50 is 0.913 ± 0.058 µM; the “IC50 range for inhibition” value is listed as “nano-molar range”; the “FRET value at saturation” value stood at 0.49 ± 0.01. In assay [1], this molecule returned an IC50 of 6 ± 2.3 µM.
